Data as given in ChEMBL document CHEMBL1201862, “PubChem BioAssay data set” (2004).
Activity calls are given as the source filed them.

Assays:
[1] = biological target: T1, Ubiquitin-conjugating enzyme E2 N (Homo sapiens, UniProt P61088); assay type: functional;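 also: Dose-response confirmation in a TR-FRET assay detecting UBC13-driven polyubiquitin chain formation, inhibition measured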
T1 sequence (P61088 whole entry): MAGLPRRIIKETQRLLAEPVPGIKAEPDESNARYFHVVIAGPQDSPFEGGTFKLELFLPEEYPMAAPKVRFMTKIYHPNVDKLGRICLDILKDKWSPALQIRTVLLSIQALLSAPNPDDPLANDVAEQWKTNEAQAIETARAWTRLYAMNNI

[2] = biological target: Alkaline phosphatase, placental type (Homo sapiens, UniProt P05187); assay: PLAP enzyme inhibitors, confirmation, biochemical, luminescence (AID 1512); assay type: functional
[3] = cells; assay type: functional
[4] = HEp-2 cell cytotoxicity, dose response, cytotoxicity control for RSV inhibitor project, HTS (AID 2410); assay type: functional; conditions: human respiratory syncytial virus
[5] = tested on: Vero; assay: cells; assay type: functional, cell-based; conditions: Chlorocebus sabaeus
[6] = cells
[7] = biological target: T2, Type-1 angiotensin II receptor (Homo sapiens, UniProt P30556); assay: AT1 receptor agonists, dose response, selectivity assay for APJ receptor agonist project, cell-based, uHTS hits (AID 488865); assay type: functional;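 also: beta-arrestin recruitment to AT1 measured by enzyme fragment complementation luminescence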
T2 sequence (P30556 whole entry): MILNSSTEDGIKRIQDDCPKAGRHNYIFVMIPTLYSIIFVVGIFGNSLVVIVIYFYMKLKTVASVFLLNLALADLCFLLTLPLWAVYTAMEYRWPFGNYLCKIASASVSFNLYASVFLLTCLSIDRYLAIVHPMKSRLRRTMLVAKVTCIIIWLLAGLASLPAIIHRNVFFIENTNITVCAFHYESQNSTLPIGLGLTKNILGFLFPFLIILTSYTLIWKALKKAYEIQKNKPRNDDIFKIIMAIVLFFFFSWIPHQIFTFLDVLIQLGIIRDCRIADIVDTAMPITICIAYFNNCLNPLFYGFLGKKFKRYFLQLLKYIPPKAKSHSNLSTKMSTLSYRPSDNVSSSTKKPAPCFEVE

[8] = biological target: T3, Estrogen receptor beta (Homo sapiens, UniProt Q92731);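 also: recombinant ER-beta bound to coactivator SRC1 peptide in presence of estradiol agonist; inhibitors block coactivator peptide binding and lower the FRET signal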
T3 sequence (Q92731 whole entry): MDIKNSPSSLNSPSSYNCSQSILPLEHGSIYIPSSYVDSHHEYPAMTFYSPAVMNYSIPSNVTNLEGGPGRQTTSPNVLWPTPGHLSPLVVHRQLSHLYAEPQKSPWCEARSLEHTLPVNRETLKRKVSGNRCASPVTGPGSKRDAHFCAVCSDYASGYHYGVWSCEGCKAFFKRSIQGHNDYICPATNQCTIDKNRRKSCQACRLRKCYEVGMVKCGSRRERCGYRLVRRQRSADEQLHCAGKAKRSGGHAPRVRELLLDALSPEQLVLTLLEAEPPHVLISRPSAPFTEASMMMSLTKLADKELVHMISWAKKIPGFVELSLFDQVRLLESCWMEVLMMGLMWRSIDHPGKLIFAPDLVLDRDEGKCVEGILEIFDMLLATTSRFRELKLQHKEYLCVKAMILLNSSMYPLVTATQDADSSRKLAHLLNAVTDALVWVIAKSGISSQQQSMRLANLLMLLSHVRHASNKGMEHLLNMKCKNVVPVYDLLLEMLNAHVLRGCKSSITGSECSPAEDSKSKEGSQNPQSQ

[9] = biological target: T3, Estrogen receptor beta; assay: ERβ–SRC-3 coactivator interaction inhibitors, confirmation, orthogonal assay, biochemical, ELISA, streptavidin-HRP readout (AID 1060)
[10] = biological target: Epstein-Barr nuclear antigen 1 (Epstein-Barr virus (strain B95-8) (HHV-4) (Human herpesvirus 4), UniProt P03211); assay: EBNA-1 inhibitors, dose response, biochemical, fluorescence polarization, 1536-well (AID 2381); set-up: species or system human gammaherpesvirus 4;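 also: fluorescence polarization of a Cy5 DNA probe bound by EBNA-1 protein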
[11] = biological target: Lytic switch protein BZLF1 (Epstein-Barr virus (strain B95-8) (HHV-4) (Human herpesvirus 4), UniProt P03206); assay: EBV ZTA inhibitors, dose response, counter-screen for EBNA-1 inhibitor project, biochemical, fluorescence polarization, Epstein-Barr virus, 1536-well (AID 2377); set-up: species or system human gammaherpesvirus 4;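 also: fluorescence polarization of Cy5-labelled ZRE DNA probe bound by purified Zta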
Chain of Lytic switch protein BZLF1 (P03206 whole entry): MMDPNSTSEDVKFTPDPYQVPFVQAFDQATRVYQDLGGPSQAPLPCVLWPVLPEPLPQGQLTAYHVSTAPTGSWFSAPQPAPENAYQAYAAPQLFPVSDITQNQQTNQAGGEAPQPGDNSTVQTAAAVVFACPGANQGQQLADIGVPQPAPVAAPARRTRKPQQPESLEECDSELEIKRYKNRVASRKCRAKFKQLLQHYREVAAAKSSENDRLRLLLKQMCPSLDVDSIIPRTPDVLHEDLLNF

[12] = tested on: Vero; assay: cytotoxicity of synthesized analogs in Vero cells, SAR follow-up, cytotoxicity control for West Nile virus antiviral project, cell-based, set II (AID 2402); assay type: functional; conditions: Chlorocebus sabaeus
[13] = A Cell Based Assay for the Identification of Probe candidate Compounds with Anti- Venezuelan Equine Encephalitis virus. [Related pubchem assays: 2409, 2419, 1621, 2238, 2405, 2024, 2065, 2402, 2414, 1635, 1650, 2244 ]; assay type: functional
[14] = biological target: Cytochrome P450 2C9 (Homo sapiens, UniProt P11712); conditions: Potency
Chain of Cytochrome P450 2C9 (P11712 whole entry): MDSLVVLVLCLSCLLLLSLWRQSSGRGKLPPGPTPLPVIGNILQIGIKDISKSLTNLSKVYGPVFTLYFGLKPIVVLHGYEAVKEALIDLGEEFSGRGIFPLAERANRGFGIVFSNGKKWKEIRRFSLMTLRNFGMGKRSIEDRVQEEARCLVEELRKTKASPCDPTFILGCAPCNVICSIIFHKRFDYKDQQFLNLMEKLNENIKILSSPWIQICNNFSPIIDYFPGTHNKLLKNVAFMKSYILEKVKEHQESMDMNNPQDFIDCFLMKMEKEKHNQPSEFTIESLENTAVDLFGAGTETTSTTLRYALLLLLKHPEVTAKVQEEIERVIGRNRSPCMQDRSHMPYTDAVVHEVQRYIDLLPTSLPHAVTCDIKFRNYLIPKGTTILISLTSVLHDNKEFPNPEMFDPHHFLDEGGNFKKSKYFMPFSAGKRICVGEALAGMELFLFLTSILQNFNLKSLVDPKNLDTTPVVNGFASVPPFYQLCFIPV

[15] = biological target: T4, Voltage-gated N-type calcium channel alpha-1B subunit/Amyloid beta A4 precursor protein-binding family A member 1 (Homo sapiens, UniProt Q00975+Q02410); assay type: protein assay
T4 sequence (Q00975 whole entry): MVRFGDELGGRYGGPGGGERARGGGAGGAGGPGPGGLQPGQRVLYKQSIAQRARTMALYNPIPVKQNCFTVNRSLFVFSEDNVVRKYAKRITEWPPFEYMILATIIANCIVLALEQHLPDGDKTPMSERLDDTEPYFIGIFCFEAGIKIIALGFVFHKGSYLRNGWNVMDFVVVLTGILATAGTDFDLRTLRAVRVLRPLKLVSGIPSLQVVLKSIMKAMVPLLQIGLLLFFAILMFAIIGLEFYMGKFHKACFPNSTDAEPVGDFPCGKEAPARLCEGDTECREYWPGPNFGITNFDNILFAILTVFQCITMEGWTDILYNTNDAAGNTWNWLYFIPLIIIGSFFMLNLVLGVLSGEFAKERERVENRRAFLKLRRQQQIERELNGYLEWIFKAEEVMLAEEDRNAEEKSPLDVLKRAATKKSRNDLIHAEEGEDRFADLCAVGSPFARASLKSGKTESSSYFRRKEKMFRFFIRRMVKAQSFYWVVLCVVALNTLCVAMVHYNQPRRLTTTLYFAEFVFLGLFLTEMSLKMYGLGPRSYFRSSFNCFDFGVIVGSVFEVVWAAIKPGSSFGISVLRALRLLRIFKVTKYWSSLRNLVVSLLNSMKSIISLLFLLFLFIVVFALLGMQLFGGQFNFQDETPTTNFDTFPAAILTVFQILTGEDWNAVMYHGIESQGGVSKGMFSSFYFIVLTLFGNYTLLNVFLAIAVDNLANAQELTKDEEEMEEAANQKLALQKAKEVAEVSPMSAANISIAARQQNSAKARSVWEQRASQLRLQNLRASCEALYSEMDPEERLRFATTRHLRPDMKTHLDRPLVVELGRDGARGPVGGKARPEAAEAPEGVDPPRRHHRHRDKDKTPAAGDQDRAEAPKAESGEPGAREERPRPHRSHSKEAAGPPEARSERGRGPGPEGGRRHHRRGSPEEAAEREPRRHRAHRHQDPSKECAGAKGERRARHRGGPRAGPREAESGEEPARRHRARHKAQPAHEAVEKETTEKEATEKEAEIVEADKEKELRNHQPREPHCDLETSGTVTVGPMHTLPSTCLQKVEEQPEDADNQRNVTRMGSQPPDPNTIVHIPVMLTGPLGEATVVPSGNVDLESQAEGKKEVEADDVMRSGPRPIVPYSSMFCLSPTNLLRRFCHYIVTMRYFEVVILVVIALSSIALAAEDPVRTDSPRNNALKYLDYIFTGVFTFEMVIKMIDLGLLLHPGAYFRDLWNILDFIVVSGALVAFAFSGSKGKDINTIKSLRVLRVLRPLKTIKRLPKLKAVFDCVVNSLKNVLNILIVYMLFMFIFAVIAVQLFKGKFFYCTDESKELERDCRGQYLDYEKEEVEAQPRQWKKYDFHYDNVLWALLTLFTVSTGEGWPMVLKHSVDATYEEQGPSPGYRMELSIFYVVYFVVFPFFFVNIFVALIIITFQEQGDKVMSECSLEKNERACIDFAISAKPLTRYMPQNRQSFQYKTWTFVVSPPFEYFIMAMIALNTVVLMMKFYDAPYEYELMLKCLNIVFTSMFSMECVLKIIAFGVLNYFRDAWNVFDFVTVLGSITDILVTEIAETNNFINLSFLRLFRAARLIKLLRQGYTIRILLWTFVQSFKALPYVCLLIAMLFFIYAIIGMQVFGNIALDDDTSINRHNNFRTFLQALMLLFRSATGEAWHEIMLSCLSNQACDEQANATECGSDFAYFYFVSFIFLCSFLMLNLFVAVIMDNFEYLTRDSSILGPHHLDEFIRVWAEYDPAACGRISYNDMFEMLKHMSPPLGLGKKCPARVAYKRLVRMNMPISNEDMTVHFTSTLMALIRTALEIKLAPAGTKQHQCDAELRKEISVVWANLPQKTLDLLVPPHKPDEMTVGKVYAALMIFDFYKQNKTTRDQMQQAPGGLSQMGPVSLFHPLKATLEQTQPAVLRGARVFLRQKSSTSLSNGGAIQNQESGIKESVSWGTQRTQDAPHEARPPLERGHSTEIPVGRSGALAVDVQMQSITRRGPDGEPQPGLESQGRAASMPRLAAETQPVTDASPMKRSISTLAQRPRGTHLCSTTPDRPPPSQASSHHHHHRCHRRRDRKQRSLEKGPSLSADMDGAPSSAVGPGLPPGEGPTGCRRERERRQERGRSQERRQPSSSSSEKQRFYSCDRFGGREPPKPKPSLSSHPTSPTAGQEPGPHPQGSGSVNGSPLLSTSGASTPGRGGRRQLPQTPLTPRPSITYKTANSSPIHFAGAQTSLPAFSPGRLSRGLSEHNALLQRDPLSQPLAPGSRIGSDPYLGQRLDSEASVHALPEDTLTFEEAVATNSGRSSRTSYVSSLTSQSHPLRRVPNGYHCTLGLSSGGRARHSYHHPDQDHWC
T4 sequence (Q02410 whole entry): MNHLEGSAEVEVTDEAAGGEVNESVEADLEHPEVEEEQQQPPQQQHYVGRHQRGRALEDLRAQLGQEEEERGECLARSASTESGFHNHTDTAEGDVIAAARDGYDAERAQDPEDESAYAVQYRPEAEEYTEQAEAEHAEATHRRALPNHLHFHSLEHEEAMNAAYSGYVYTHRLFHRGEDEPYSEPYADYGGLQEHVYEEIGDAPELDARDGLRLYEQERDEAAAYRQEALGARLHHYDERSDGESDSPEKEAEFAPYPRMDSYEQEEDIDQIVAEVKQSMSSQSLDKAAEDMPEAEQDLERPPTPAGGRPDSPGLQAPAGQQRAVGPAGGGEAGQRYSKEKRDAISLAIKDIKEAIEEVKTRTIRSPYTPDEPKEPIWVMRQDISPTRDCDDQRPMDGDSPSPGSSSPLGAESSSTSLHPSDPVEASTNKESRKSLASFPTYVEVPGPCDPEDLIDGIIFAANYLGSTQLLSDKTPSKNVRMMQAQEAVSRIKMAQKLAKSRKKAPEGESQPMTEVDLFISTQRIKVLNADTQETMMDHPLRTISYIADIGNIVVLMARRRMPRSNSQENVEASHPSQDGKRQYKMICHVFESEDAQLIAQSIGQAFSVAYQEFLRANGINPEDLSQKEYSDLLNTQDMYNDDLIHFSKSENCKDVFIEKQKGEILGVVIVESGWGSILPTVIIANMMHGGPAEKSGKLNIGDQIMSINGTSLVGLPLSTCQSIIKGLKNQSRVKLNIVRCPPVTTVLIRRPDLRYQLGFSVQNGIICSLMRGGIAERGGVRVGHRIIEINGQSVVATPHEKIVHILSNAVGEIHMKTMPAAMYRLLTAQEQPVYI

[16] = biological target: T4, Voltage-gated N-type calcium channel alpha-1B subunit/Amyloid beta A4 precursor protein-binding family A member 1; assay type: protein assay; remark: listed apart in the source
[17] = biological target: T4, Voltage-gated N-type calcium channel alpha-1B subunit/Amyloid beta A4 precursor protein-binding family A member 1; assay: disruptors of Mint-PDZ/N-type channel peptide interaction – biochemical, HTRF, set 2, SAR follow-up (AID 434980); assay type: functional
[18] = biological target: T4, Voltage-gated N-type calcium channel alpha-1B subunit/Amyloid beta A4 precursor protein-binding family A member 1; assay: disruptors of Mint-PDZ/N-type channel peptide interaction – biochemical, HTRF, SAR follow-up (AID 2489); assay type: functional
[19] = biological target: DNA dC->dU-editing enzyme APOBEC-3A (Homo sapiens, UniProt P31941); assay: APOBEC3A DNA deaminase inhibitors, dose response, biochemical (AID 504722); assay type: functional
[20] = biological target: DNA dC->dU-editing enzyme APOBEC-3G (Homo sapiens, UniProt Q9HC16); assay: Dose Response confirmation of small molecule APOBEC3G DNA Deaminase Inhibitors via a fluorescence-based single-stranded DNA deaminase assay. [Related pubchem assays (depositor defined):AID493012, AID493028]; assay type: functional
[21] = biological target: 5-hydroxytryptamine receptor 1E (Homo sapiens, UniProt P28566); assay: Counterscreen assay for S1P3 antagonists: Dose response cell-based high throughput screening assay to identify antagonists of the 5-Hydroxytryptamine Receptor Subtype 1E (5HT1E). [Related pubchem assays: 1429, 485 ]; assay type: functional
[22] = biological target: Sphingosine 1-phosphate receptor 3 (Homo sapiens, UniProt Q99500); assay: Dose response cell-based high throughput screening assay for antagonists of the Sphingosine 1-Phosphate Receptor 3 (S1P3). [Related pubchem assays: 1429, 485 ]; assay type: functional
[23] = biological target: Glucose-6-phosphate 1-dehydrogenase (Homo sapiens, UniProt P11413); assay: human G6PD enzyme inhibitors, dose response, selectivity assay for P. falciparum G6PD inhibitor project, biochemical, fluorescence (AID 504792); assay type: functional
[24] = biological target: Cytochrome P450 3A4 (Homo sapiens, UniProt P08684); conditions: Potency;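 also: confirmatory qHTS run detecting inhibitors and substrates of CYP3A4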
[25] = tested on: Vero; assay: host cell cytotoxicity of antiviral hits, dose response, cytotoxicity control for West Nile virus antiviral project, secondary assay (AID 1650); assay type: functional; conditions: Chlorocebus sabaeus
[26] = biological target: Melanocortin receptor 4 (Homo sapiens, UniProt P32245); assay: MC4R antagonist potency on cAMP, dose response, cell-based, TR-FRET, biased antagonists (AID 602298); assay type: functional;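 also: antagonist potency against agonist-stimulated cAMP production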
[27] = nonselective inhibitors of cellular cAMP signaling, dose response, counter-screen for MC4R biased antagonist project, cell-based, TR-FRET cAMP detection (AID 602305); assay type: functional;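 also: U2OS cells stimulated with forskolin near its EC80 as the cAMP inducer; potency is for inhibition of forskolin-stimulated cAMP signaling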
[28] = biological target: Glyceraldehyde-3-phosphate dehydrogenase (Homo sapiens, UniProt P04406)
[29] = biological target: T5, Alkaline phosphatase, tissue-nonspecific isozyme (Homo sapiens, UniProt P05186); assay: human TNAP enzyme inhibitors, SAR follow-up, biochemical, luminescent, dose response (AID 1056)
T5 sequence (P05186 whole entry): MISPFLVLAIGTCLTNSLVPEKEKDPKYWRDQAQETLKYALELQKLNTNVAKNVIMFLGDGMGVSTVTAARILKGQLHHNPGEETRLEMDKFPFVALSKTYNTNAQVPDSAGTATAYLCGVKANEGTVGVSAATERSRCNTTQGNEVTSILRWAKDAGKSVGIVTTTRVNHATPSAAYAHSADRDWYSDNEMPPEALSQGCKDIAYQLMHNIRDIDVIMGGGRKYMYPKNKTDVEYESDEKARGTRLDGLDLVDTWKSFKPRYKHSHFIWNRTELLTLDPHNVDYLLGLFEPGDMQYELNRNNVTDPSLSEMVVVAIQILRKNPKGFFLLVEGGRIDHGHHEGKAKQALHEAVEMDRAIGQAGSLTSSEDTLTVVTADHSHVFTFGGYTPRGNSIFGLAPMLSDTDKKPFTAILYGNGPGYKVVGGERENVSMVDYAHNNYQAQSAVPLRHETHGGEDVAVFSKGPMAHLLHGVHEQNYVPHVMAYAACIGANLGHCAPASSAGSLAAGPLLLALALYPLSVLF

[30] = tested on: HEK293; assay: NOD1 signaling inhibitors, primary screen, cell-based, luminescence, uHTS (AID 1578); assay type: functional; conditions: Homo sapiens
[31] = tested on: HEK293; assay: cells; assay type: functional, cell-based; conditions: Homo sapiens
[32] = tested on: HEK293; assay: cells; assay type: functional, cell-based; conditions: Homo sapiens; remark: listed apart in the source
[33] = biological target: Nucleotide-binding oligomerization domain-containing protein 2 (Homo sapiens, UniProt Q9HC29); assay: NOD2 signaling inhibitors, cell-based, luminescence, uHTS, HEK293 (AID 1566); assay type: functional
[34] = tested on: HEK293; assay: NOD2 signaling inhibitors in MDP-stimulated cells, cell-based, uHTS, luminescence (AID 2001); assay type: functional; conditions: Homo sapiens
[35] = tested on: HEK293; assay: cells; assay type: functional, cell-based; conditions: Homo sapiens; remark: listed apart in the source
[36] = biological target: T6, Intestinal-type alkaline phosphatase (Homo sapiens, UniProt P09923); assay: Dose Response confirmation of uHTS hits from a small molecule inhibitors of human intestinal alkaline phosphatase via a luminescent assay. [Related pubchem assays (depositor defined):AID2544, AID2574]; assay type: functional
T6 sequence (P09923 whole entry): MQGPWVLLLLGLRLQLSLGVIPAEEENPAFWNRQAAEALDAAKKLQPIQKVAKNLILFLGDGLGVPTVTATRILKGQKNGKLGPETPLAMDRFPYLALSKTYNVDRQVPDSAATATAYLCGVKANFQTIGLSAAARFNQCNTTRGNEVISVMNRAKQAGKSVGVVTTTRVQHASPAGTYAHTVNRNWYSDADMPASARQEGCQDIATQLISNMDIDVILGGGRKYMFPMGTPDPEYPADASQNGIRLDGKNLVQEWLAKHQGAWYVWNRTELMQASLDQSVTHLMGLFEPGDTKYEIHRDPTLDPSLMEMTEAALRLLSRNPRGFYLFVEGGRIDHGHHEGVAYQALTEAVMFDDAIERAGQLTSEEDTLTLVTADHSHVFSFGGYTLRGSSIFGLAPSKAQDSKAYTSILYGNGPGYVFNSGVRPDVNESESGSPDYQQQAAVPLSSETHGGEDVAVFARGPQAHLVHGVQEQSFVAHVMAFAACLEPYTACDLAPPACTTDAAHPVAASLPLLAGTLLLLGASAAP

[37] = biological target: T6, Intestinal-type alkaline phosphatase; assay: human intestinal alkaline phosphatase activators, dose response, biochemical, luminescence, uHTS hits (AID 463120); assay type: functional
[38] = THP-1 cell cytotoxicity, dose response, cytotoxicity control for non-replicating M. tuberculosis project (AID 489025); assay type: functional
[39] = HepG2 cell cytotoxicity, dose response, cytotoxicity control for non-replicating M. tuberculosis project (AID 489018); assay type: functional; conditions: Mycobacterium tuberculosis

SMILES: COc1ccc(OCC(=O)NNC(=O)c2ccccn2)cc1
- IC50 [1]: > 20 µM (inactive)
- IC50 [2]: > 100 µM (inactive)
- IC50 [3]: 9.61 µM (active)

SMILES: O=C(CCNC(=O)c1ccc(Cl)cc1)NC1CCCc2ccccc21 (stereo not given)
- CC50 [4]: 40.2 µM (active)
- IC50 [5]: 19.8 µM (active)
- IC50 [6]: 13.4 µM (active)

SMILES: COc1ccc2nc(O)c(C(c3nnnn3CC3CCCO3)N3CCc4ccccc4C3)cc2c1 (stereo not given)
- EC50 [7]: > 100 µM (inactive)

SMILES: c1coc(-c2nnc3sc(Cc4cccs4)nn23)c1
- IC50 [8]: < 1.56 µM (active)
- IC50 [9]: 4.41 µM (not active)

SMILES: Nc1c(C(=O)Nc2ccc3c(c2)OCCO3)nnn1Cc1cccc(Cl)c1
- IC50 [10]: 9.25 µM (active)
- IC50 [11]: > 111 µM (not active)

SMILES: COc1ccc(-c2csc(N(CCCBr)C(=O)c3ccccc3Cl)n2)cc1
- CC50 [12]: 78.2 µM (active)
- IC50 [13]: > 66.6 µM (active)

SMILES: CC(C)[C@]1(NC(=O)[C@H]2C=C3c4cccc5[nH]cc(c45)C[C@H]3N(C)C2)O[C@@]2(O)[C@H]3CCCN3C(=O)[C@H](Cc3ccccc3)N2C1=O
- AC50 [14]: 7.94 µM (inconclusive)

SMILES: COc1cccc2cc(C(=O)Nc3ccc(S(=O)(=O)NCC4CCCO4)cc3)c(=O)oc12 (stereo not given)
- IC50 [15]: > 56.8 µM (not active)
- IC50 [16]: > 50 µM (inactive)

SMILES: Cc1ccc(N2C(=O)C3C(C2=O)C2(C)C=CC3(C)O2)cc1 (stereo not given)
- IC50 [17]: > 56.8 µM (inactive)
- IC50 [18]: 11.5 µM (active)

SMILES: CCN(CC)S(=O)(=O)c1cccc(-c2n[nH]c(=S)n2C)c1
- IC50 [19]: > 100 µM (inactive)
- IC50 [20]: 4.94 µM (active)

SMILES: CCc1ccccc1NC1c2ccccc2C(=O)N1Cc1ccco1 (stereo not given)
- IC50 [21]: 15.6 µM (not active)
- IC50 [22]: > 50 µM (not active)

SMILES: Nn1c(SCC(=O)Nc2cccnc2Cl)nnc1-c1ccccc1
- IC50 [19]: > 100 µM (inactive)
- IC50 [23]: > 80 µM (inactive)
- IC50 [20]: 13.3 µM (active)

SMILES: CNC(=O)[C@@H]1C[C@H]1[C@@H](NC(=O)CNC(=O)OCc1ccccc1)c1ccccc1
- AC50 [24]: 15.8 µM (inconclusive)

SMILES: N=c1c(-c2nc3ccccc3[nH]2)cc(C(=O)c2cccs2)nn1-c1ccc(Cl)cc1
- IC50 [8]: > 50 µM (not active)
- IC50 [9]: > 50 µM (not active)

SMILES: NS(=O)(=O)c1ccc(NC(=O)COC(=O)/C(=C/c2cccs2)c2cccs2)cc1
- IC50 [10]: 17.1 µM (not active)
- IC50 [11]: > 111 µM (not active)

SMILES: Cc1ccc(NC(=O)C(C)c2ccc([N+](=O)[O-])cc2)cc1Cl (stereo not given)
- IC50 [21]: 13.4 µM (not active)
- IC50 [22]: 11.3 µM (not active)

SMILES: Cc1nc(N2CCOCC2)c2nc(-c3ccccc3)n(C(C)CN(C)C)c2n1 (stereo not given)
- AC50 [24]: 20 µM (inconclusive)

SMILES: Cc1ccc(Nc2nc(N/N=C/c3c[nH]c4ccccc34)nc(N3CCOCC3)n2)cc1
- CC50 [4]: 18.2 µM (active)
- CC50 [25]: 12.9 µM (active)
- IC50 [26]: > 64.6 µM (inactive)
- IC50 [27]: > 64.6 µM (inactive)
- IC50 [6]: 20.5 µM (active)

SMILES: O=C1NC(=O)N(c2ccccc2)C(=O)/C1=C/c1ccc(Sc2ccccc2)o1
- IC50 [15]: 35.9 µM (active)
- IC50 [16]: 34.4 µM (active)

SMILES: COc1ccccc1-c1nnc(SCC(=O)Nc2ccc(C)c(C)c2)[nH]1
- IC50 [28]: > 100 µM (not active)
- IC50 [2]: > 100 µM (inactive)
- IC50 [29]: > 100 µM (inactive)

SMILES: COc1cc(/C=C/C(=O)c2ccc(C)cc2)ccc1OCC#N
- EC50 [30]: 4.61 µM (active)
- IC50 [31]: 4.56 µM (active)
- IC50 [32]: > 20 µM (inactive)
- EC50 [33]: > 20 µM (inactive)
- IC50 [34]: 5.83 µM (active)
- IC50 [35]: > 20 µM (inactive)

SMILES: CCc1nnc(NC(=O)CSc2nnc(C)c(=O)n2N)s1
- IC50 [36]: > 100 µM (inactive)
- EC50 [37]: > 100 µM (inactive)

SMILES: CC(C)C[C@H]1CN=C(Nc2ccccc2)N1CCCC1CCCCC1
- CC50 [38]: 16.2 µM (active)
- CC50 [39]: > 20 µM (active)
- IC50 [3]: 40.1 µM (active)

SMILES: CC(=O)c1ccc(OC2C=CC(c3ccc(Cl)cc3)OC2CO)cc1 (stereo not given)
- AC50 [14]: 5.01 µM (inconclusive)
